Measurements: ChEMBL document CHEMBL1150098, “Makaluvamines H-M and damirone C from the pohnpeian sponge Zyzzya fuliginosa” (J Nat Prod, 1995)
The source made the active and inactive calls. No cut-off for these calls is given here.

Tests used:
HCT-116 = experiment: Cytotoxicity against human HCT116 cells; assay type: functional, cell-based
[1] = molecular target: DNA topoisomerase 2-alpha (Homo sapiens) (UniProt P11388); experiment: Inhibition of DNA topoisomerase 2
Chain of DNA topoisomerase 2-alpha (Homo sapiens) (P11388 whole entry): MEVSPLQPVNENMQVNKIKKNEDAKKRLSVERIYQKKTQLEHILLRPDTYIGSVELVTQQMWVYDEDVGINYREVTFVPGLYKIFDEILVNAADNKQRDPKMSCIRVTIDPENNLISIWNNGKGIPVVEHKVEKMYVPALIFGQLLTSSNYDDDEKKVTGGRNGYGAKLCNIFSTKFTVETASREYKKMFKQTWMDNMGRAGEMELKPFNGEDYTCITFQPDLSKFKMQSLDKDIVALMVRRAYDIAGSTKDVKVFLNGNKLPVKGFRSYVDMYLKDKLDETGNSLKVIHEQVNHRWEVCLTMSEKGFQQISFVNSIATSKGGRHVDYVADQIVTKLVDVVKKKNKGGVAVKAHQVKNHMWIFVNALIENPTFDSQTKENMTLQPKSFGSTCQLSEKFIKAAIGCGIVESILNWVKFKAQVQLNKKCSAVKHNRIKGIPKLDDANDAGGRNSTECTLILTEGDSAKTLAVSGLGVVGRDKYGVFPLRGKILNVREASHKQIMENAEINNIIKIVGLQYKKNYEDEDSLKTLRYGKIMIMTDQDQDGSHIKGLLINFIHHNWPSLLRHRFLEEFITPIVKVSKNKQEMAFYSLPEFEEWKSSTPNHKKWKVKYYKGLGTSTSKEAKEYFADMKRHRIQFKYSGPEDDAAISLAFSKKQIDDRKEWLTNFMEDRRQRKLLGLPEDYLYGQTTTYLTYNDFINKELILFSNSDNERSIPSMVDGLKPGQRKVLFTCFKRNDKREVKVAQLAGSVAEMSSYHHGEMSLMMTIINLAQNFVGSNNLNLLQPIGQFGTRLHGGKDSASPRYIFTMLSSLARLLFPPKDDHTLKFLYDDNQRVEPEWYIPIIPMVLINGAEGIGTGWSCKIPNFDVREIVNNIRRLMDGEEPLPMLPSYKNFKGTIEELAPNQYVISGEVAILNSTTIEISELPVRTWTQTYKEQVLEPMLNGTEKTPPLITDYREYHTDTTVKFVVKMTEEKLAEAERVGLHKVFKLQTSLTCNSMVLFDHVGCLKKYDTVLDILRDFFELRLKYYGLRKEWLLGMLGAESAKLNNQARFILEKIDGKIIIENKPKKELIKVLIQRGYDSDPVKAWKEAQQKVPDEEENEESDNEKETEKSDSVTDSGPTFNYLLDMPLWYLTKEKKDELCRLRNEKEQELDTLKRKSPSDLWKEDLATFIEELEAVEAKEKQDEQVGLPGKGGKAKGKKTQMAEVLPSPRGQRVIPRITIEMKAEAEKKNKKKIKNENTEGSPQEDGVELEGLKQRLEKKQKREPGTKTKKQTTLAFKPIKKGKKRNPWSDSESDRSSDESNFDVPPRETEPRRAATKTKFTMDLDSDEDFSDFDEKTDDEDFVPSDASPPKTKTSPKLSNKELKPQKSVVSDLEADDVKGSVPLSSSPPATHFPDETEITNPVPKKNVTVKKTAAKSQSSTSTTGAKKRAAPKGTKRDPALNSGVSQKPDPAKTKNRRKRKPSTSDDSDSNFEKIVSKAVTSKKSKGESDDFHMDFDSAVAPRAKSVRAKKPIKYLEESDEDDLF

| SMILES | Activity (HCT-116) | Activity [1] |
| --- | --- | --- |
| Cn1cc2c3c1C(=O)C(N)=CC3=[N+](C)CC2 | Active | inactive |
| Cn1cc2c3c1C(=O)C(N/C=C/c1ccc(O)cc1)=CC3=NCC2 | Active | Active |
| C[N+]1=C2C=C(N/C=C/c3ccc(O)cc3)C(=O)c3[nH]cc(c32)CC1 | Active | inactive |
| O=C1C(N/C=C/c2ccc(O)cc2)=CC2=NCCc3c[nH]c1c32 | Active | inactive |
| Cn1cc2c3c1C(=O)C(N/C=C/c1ccc(O)cc1)=CC3=[N+](C)CC2 | Active | inactive |
| Cn1cc2c3c1C(=O)C(N)=CC3=NCC2 | Active | Active |
| NC1=CC2=NCCc3c[nH]c(c32)C1=O | Active |  |
| O=C1C(NCCc2ccc(O)cc2)=CC2=NCCc3c[nH]c1c32 | Active | inactive |
| C[N+]1=C2C=C(N)C(=O)c3[nH]cc(c32)CC1 | Active | Active |
| C[N+]1=C2C=C(NCCc3ccc(O)cc3)C(=O)c3[nH]cc(c32)CC1 | Active | inactive |
| Cn1cc2c3c1C(=O)C(NCCc1ccc(O)cc1)=CC3=NCC2 | Active | inactive |
| O=C1C(NC2Cc3cc(Br)c(O)cc3S2)=CC2=NCCc3c[nH]c1c32 (stereo not drawn) | Active | Active |
